Where two headings read alike, the source gives them in different places. Marks after values point to notes of the source that are not given here.
Assays:
hepatitis C virus (HCV) = test: Efficacy study in chronic viral hepatitis C, 74 patients (Tables 54-55)
hepatitis B virus (HBV) [1] = test: Efficacy study in chronic viral hepatitis B, 62 patients (Tables 47-49); type: in vivo, human; settings: month 1 (after treatment)
Text: State of patient upon completion of treatment.

hepatitis B virus (HBV) [2] = test: as above; type: in vivo, human
ATP-ase/helicase = ATP-ase/helicase activity in lysate of donor lymphocyte nuclei
[3] = system: ATP-ase/helicase (NS3 of hepatitis C virus)
[4] = month 2 (1 month after treatment)
[5] = month 4 (3 months after treatment)
[6] = 100 μg/ml, 100 pg M13 phage DNA
[7] = 100 μg/ml, 200 pg M13 phage DNA
[8] = compared with GSSG-I and GSSG-IMP
[9] = 100 μg/ml, 500 pg M13 phage DNA
[10] = 100 μg/ml, 800 pg M13 phage DNA

Cc1cn([C@H]2C[C@H](N=[N+]=[N-])[C@@H](CO)O2)c(=O)[nH]c1=O [Retrovir]
ALT in Chronic HCV Infection (hepatitis C virus (HCV); Baseline (before treatment)): 180 ± 20.0 U/L
ALT in Chronic HCV Infection (hepatitis C virus (HCV); month 1 (after treatment)): **132.0 ± 51.5 U/L
ALT in Chronic HCV Infection (hepatitis C virus (HCV); [4]): **108 ± 40.3 U/L
ALT in Chronic HCV Infection (hepatitis C virus (HCV); [5]): **90.0 ± 25.2 U/L

CC(=O)OCC(CCn1cnc2cnc(N)nc21)COC(C)=O [Famvir]
ALT in Chronic HBV Infection (hepatitis B virus (HBV) [1]): **70.2 ± 9.1 U/L
HbsAg in Chronic HBV Infection (hepatitis B virus (HBV) [1]): **150.5 ± 10.43 ng/mL
PCR (%) in Chronic HBV Infection (hepatitis B virus (HBV) [1]): **50.0* %
ALT in Chronic HBV Infection (hepatitis B virus (HBV) [2]; Baseline (before treatment)): 165.7 ± 13.8 U/L
HbsAg in Chronic HBV Infection (hepatitis B virus (HBV) [2]; Baseline (before treatment)): 157.8 ± 8.84 ng/mL
PCR (%) in Chronic HBV Infection (hepatitis B virus (HBV) [2]; Baseline (before treatment)): 100%
ALT in Chronic HBV Infection (hepatitis B virus (HBV) [2]; [4]): **75.9 ± 9.6 U/L
HbsAg in Chronic HBV Infection (hepatitis B virus (HBV) [2]; [4]): **153.5 ± 10.14 ng/mL
PCR (%) in Chronic HBV Infection (hepatitis B virus (HBV) [2]; [4]): **60.0%
ALT in Chronic HBV Infection (hepatitis B virus (HBV) [2]; [5]): **77.9 ± 10.2 U/L
HbsAg in Chronic HBV Infection (hepatitis B virus (HBV) [2]; [5]): **132.5 ± 43.76 ng/mL
PCR (%) in Chronic HBV Infection (hepatitis B virus (HBV) [2]; [5]): **20.0%

CC(C)(C)NC(=O)[C@@H]1C[C@@H]2CCCC[C@@H]2CN1C[C@@H](O)[C@H](Cc1ccccc1)NC(=O)[C@H](CC(N)=O)NC(=O)c1ccc2ccccc2n1 [Invirasa]
ALT in Chronic HBV Infection (hepatitis B virus (HBV) [1]): **90.8 ± 5.5 U/L
HbsAg in Chronic HBV Infection (hepatitis B virus (HBV) [1]): **109.0 ± 54.5 ng/mL
PCR (%) in Chronic HBV Infection (hepatitis B virus (HBV) [1]): **70.0* %
ALT in Chronic HBV Infection (hepatitis B virus (HBV) [2]; Baseline (before treatment)): 165.7 ± 17.0 U/L
HbsAg in Chronic HBV Infection (hepatitis B virus (HBV) [2]; Baseline (before treatment)): 137.0 ± 20.6 ng/mL
PCR (%) in Chronic HBV Infection (hepatitis B virus (HBV) [2]; Baseline (before treatment)): 100%
ALT in Chronic HBV Infection (hepatitis B virus (HBV) [2]; [4]): **71.4 ± 6.5 U/L
HbsAg in Chronic HBV Infection (hepatitis B virus (HBV) [2]; [4]): **112.2 ± 22.2 ng/mL
PCR (%) in Chronic HBV Infection (hepatitis B virus (HBV) [2]; [4]): **60.0* %
ALT in Chronic HBV Infection (hepatitis B virus (HBV) [2]; [5]): **71.8 ± 7.4 U/L
HbsAg in Chronic HBV Infection (hepatitis B virus (HBV) [2]; [5]): **172.0 ± 14.5 ng/mL
PCR (%) in Chronic HBV Infection (hepatitis B virus (HBV) [2]; [5]): **60.0%

N[C@@H](CCC(=O)N[C@@H](CSSC[C@H](NC(=O)CC[C@H](NP(=O)(O)OC[C@H]1O[C@@H](n2ccc(=O)[nH]c2=O)[C@H](O)[C@@H]1O)C(=O)O)C(=O)NCC(=O)[O-])C(=O)NCC(=O)[O-])C(=O)O.[Na+].[Na+] [GSSG-UMP]
Radioactive fraction, high-molecular (ATP-ase/helicase; 10 μg/ml, 5 pg M13 phage DNA): 16 ± 1/
Radioactive fraction, low-molecular (ATP-ase/helicase; 10 μg/ml, 5 pg M13 phage DNA): 84 ± 5
Radioactive fraction, high-molecular (ATP-ase/helicase; 10 μg/ml, 20 pg M13 phage DNA): 20 ± 2/
Radioactive fraction, low-molecular (ATP-ase/helicase; 10 μg/ml, 20 pg M13 phage DNA): 80 ± 5
Radioactive fraction, high-molecular (ATP-ase/helicase; 10 μg/ml, 50 pg M13 phage DNA): 41 ± 32/
Radioactive fraction, low-molecular (ATP-ase/helicase; 10 μg/ml, 50 pg M13 phage DNA): 59 ± 5
Radioactive fraction, high-molecular (ATP-ase/helicase; 10 μg/ml, 100 pg M13 phage DNA): 72 ± 4.5/
Radioactive fraction, low-molecular (ATP-ase/helicase; 10 μg/ml, 100 pg M13 phage DNA): 28 ± 2.5
Radioactive fraction, high-molecular (ATP-ase/helicase; 10 μg/ml, 200 pg M13 phage DNA): 92 ± 7/
Radioactive fraction, low-molecular (ATP-ase/helicase; 10 μg/ml, 200 pg M13 phage DNA): 8 ± 2
Radioactive fraction, high-molecular (ATP-ase/helicase; 50 μg/ml, 5 pg M13 phage DNA): 32.5 ± 1.5*/
Radioactive fraction, low-molecular (ATP-ase/helicase; 50 μg/ml, 5 pg M13 phage DNA): 67.5 ± 5.5
Radioactive fraction, high-molecular (ATP-ase/helicase; 50 μg/ml, 20 pg M13 phage DNA): 37.5 ± 2.5*/
Radioactive fraction, low-molecular (ATP-ase/helicase; 50 μg/ml, 20 pg M13 phage DNA): 62.5 ± 5.5
Radioactive fraction, high-molecular (ATP-ase/helicase; 50 μg/ml, 50 pg M13 phage DNA): 59 ± 5*/
Radioactive fraction, low-molecular (ATP-ase/helicase; 50 μg/ml, 50 pg M13 phage DNA): 41 ± 4
Radioactive fraction, high-molecular (ATP-ase/helicase; 50 μg/ml, 100 pg M13 phage DNA): 80 ± 6/
Radioactive fraction, low-molecular (ATP-ase/helicase; 50 μg/ml, 100 pg M13 phage DNA): 20 ± 3.5
Radioactive fraction, high-molecular (ATP-ase/helicase; 50 μg/ml, 200 pg M13 phage DNA): 90.5 ± 6/
Radioactive fraction, low-molecular (ATP-ase/helicase; 50 μg/ml, 200 pg M13 phage DNA): 9.5 ± 1.5
Radioactive fraction, high-molecular (ATP-ase/helicase; 100 μg/ml, 5 pg M13 phage DNA): 42 ± 3*/
Radioactive fraction, low-molecular (ATP-ase/helicase; 100 μg/ml, 5 pg M13 phage DNA): 58 ± 4
Radioactive fraction, high-molecular (ATP-ase/helicase; 100 μg/ml, 20 pg M13 phage DNA): 49.5 ± 4*/
Radioactive fraction, low-molecular (ATP-ase/helicase; 100 μg/ml, 20 pg M13 phage DNA): 50.5 ± 5
Radioactive fraction, high-molecular (ATP-ase/helicase; 100 μg/ml, 50 pg M13 phage DNA): 67 ± 5*/
Radioactive fraction, low-molecular (ATP-ase/helicase; 100 μg/ml, 50 pg M13 phage DNA): 33 ± 3.5
Radioactive fraction, high-molecular (ATP-ase/helicase; [6]): 84 ± 6.5/
Radioactive fraction, low-molecular (ATP-ase/helicase; [6]): 16 ± 1.5
Radioactive fraction, high-molecular (ATP-ase/helicase; [7]): 92.5 ± 8/
Radioactive fraction, low-molecular (ATP-ase/helicase; [7]): 7.5 ± 2
Relative inhibition of ATP-ase/helicase activity (ATP-ase/helicase; [8]): inhibits ATP-ase/helicase activity most of all
Radioactive fraction, high-molecular ([3]; 10 μg/ml, 20 pg M13 phage DNA): 16 ± 1/
Radioactive fraction, low-molecular ([3]; 10 μg/ml, 20 pg M13 phage DNA): 84 ± 5
Radioactive fraction, high-molecular ([3]; 10 μg/ml, 50 pg M13 phage DNA): 17.5 ± 1.5/
Radioactive fraction, low-molecular ([3]; 10 μg/ml, 50 pg M13 phage DNA): 82.5 ± 8.5
Radioactive fraction, high-molecular ([3]; 10 μg/ml, 200 pg M13 phage DNA): 45 ± 4/
Radioactive fraction, low-molecular ([3]; 10 μg/ml, 200 pg M13 phage DNA): 55 ± 5
Radioactive fraction, high-molecular ([3]; 10 μg/ml, 500 pg M13 phage DNA): 73.5 ± 5.5/
Radioactive fraction, low-molecular ([3]; 10 μg/ml, 500 pg M13 phage DNA): 27.5 ± 1.5
Radioactive fraction, high-molecular ([3]; 10 μg/ml, 800 pg M13 phage DNA): 92.0 ± 5/
Radioactive fraction, low-molecular ([3]; 10 μg/ml, 800 pg M13 phage DNA): 8 ± 1
Radioactive fraction, high-molecular ([3]; 50 μg/ml, 20 pg M13 phage DNA): 32 ± 2.5*/
Radioactive fraction, low-molecular ([3]; 50 μg/ml, 20 pg M13 phage DNA): 78 ± 7
Radioactive fraction, high-molecular ([3]; 50 μg/ml, 50 pg M13 phage DNA): 34 ± 3*/
Radioactive fraction, low-molecular ([3]; 50 μg/ml, 50 pg M13 phage DNA): 66 ± 7
Radioactive fraction, high-molecular ([3]; 50 μg/ml, 200 pg M13 phage DNA): 51 ± 4/
Radioactive fraction, low-molecular ([3]; 50 μg/ml, 200 pg M13 phage DNA): 49 ± 5
Radioactive fraction, high-molecular ([3]; 50 μg/ml, 500 pg M13 phage DNA): 74 ± 5/
Radioactive fraction, low-molecular ([3]; 50 μg/ml, 500 pg M13 phage DNA): 26 ± 2
Radioactive fraction, high-molecular ([3]; 50 μg/ml, 800 pg M13 phage DNA): 92.5 ± 6.5/
Radioactive fraction, low-molecular ([3]; 50 μg/ml, 800 pg M13 phage DNA): 7.5 ± 1
Radioactive fraction, high-molecular ([3]; 100 μg/ml, 20 pg M13 phage DNA): 36 ± 2*/
Radioactive fraction, low-molecular ([3]; 100 μg/ml, 20 pg M13 phage DNA): 64 ± 5
Radioactive fraction, high-molecular ([3]; 100 μg/ml, 50 pg M13 phage DNA): 41 ± 4*/
Radioactive fraction, low-molecular ([3]; 100 μg/ml, 50 pg M13 phage DNA): 59 ± 6
Radioactive fraction, high-molecular [3, 7]: 57.5 ± 7.5*/
Radioactive fraction, low-molecular [3, 7]: 42.5 ± 3.5
Radioactive fraction, high-molecular [3, 9]: 75.5 ± 6.5/
Radioactive fraction, low-molecular [3, 9]: 24.5 ± 3.5
Radioactive fraction, high-molecular [3, 10]: 92.5 ± 6.5/
Radioactive fraction, low-molecular [3, 10]: 7.5 ± 1
Relative inhibition of ATP-ase/helicase activity [3, 8]: maximal inhibitory effect

Nc1ccn([C@H]2CC[C@@H](CO)O2)c(=O)n1 [Zalzitabin]
PCR (%) in Chronic HCV Infection (hepatitis C virus (HCV); Baseline (before treatment)): 100%
PCR (%) in Chronic HCV Infection (hepatitis C virus (HCV); month 1 (after treatment)): **73.9* %
PCR (%) in Chronic HCV Infection (hepatitis C virus (HCV); [4]): **56.5* %
PCR (%) in Chronic HCV Infection (hepatitis C virus (HCV); [5]): **60.9* %
